This passage reports inhibition results from patent US20170015654A1, “PYRIDAZINE COMPOUND” (TAKEDA PHARMACEUTICAL COMPANY LIMITED, priority 2014, published 2017).

The assay deals with T1, SCD (Homo sapiens, UniProt O00767).
T1 construct: HCT116 (ATCC (American Type Culture Collection)) was inoculated at 1×10^5 cells/well to a 96-well plate; host or cells: HCT116
T1 sequence (O00767 1-359): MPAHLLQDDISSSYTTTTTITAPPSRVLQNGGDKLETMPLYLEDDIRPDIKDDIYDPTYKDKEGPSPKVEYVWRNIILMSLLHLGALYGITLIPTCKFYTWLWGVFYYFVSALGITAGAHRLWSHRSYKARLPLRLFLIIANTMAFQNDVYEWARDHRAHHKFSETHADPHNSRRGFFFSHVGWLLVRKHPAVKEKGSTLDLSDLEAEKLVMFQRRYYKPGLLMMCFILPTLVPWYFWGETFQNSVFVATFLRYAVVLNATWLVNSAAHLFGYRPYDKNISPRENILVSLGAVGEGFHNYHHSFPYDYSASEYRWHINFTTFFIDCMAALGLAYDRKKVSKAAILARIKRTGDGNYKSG
In words: Measurement of SCD inhibitory activity using human large intestine cancer cell line (HCT116 cell). In kind it is cell-based. The settings on record: HCT-116; 1 μM compound; HCT116 cells; [14C]stearic acid, 3 hours; read-out: Rate of inhibition of SCD activity at compound concentration of 1 μM. Here is the method: Measurement of SCD Inhibitory Activity Using Human Large Intestine Cancer Cell Line (HCT116 Cell)
HCT116 (ATCC (American Type Culture Collection)) was inoculated at 1×10^5 cells/well to a 96-well plate and cultured overnight in DMEM (Dulbecco's modified Eagle medium) containing 10% FBS (fetal bovine serum) (AusGeneX PTY LTD.). After the culture, each well was washed twice with phosphate-buffered saline (PBS) (200 μL). Then, a reaction medium (DMEM, penicillin/streptomycin, 0.3% BSA) containing 1.5 μM of the test compound was added thereto at 40 μL/well, and the plate was left standing for 15 minutes in a CO2 incubator (37° C.). A reaction medium containing 0.1 μCi of [^14C]stearic acid was added at 20 μL/well to the plate thus left standing, and the plate was left standing for 3 hours in a CO2 incubator (37° C.). Each well of the plate thus left standing was washed twice with 200 μL of PBS. Then, 2.5 N NaOH was added thereto at 20 μL/well, and the plate was provided with a plate seal and then incubated overnight in a heat sterilizer set to 55° C. A formic acid:methanol:chloroform (1:16:4) solution was added at 200 μL/well to the plate thus left standing. Further, the mixture in each well was separated into two layer by the addition of 200 μL of pure water. After the separation, a 10 μL aliquot was separated from the lower layer, spotted on a reverse-phase TLC plate (RP-18, 1154230001, Merck KGaA), and developed with an acetonitrile:pure water:acetic acid (95:4.5:0.5) solution. After drying, the TLC plate was transferred to Imaging Plate (Fuji Photo Film) for 5 hours or longer. Detection was carried out using FLA7000 (GE Healthcare Japan Corp.), and the obtained spot images were digitalized using ImageQuant TL (GE Healthcare Japan Corp.) to determine the rate of inhibition of SCD activity (%).

With `N#CC1(c2ccc(S(F)(F)(F)(F)F)cc2)CCN(c2ccc(-c3nnc(CO)o3)nn2)CC1` [Example 58, 1-(6-(5-(Hydroxymethyl)-1,3,4-oxadiazol-2-yl)pyridazin-3-yl)-4-(4-(pentafluorosulfanyl)phenyl)piperidine-4-carbonitrile], the inhibition at 1 µM turned out to be 97%. Under `OCc1noc(-c2ccc(N3CCC(c4ccc(C(F)(F)F)cc4)(C(F)(F)F)CC3)nn2)n1` [Example 82, (5-(6-(4-(Trifluoromethyl)-4-(4-(trifluoromethyl)phenyl)piperidin-1-yl)pyridazin-3-yl)-1,2,4-oxadiazol-3-yl)methanol] stands 99%; under `OCc1nnc(-c2ccc(N3CCC(c4ccc(C(F)(F)F)cc4)(C(F)(F)F)CC3)nn2)o1` [Example 84, (5-(6-(4-(Trifluoromethyl)-4-(4-(trifluoromethyl)phenyl)piperidin-1-yl)pyridazin-3-yl)-1,3,4-oxadiazol-2-yl)methanol], 99%. Regarding `COC1(c2ccc(S(F)(F)(F)(F)F)cc2)CCN(c2ccc(-c3nnc(CO)o3)nn2)CC1` [Example 93, (5-(6-(4-Methoxy-4-(4-(pentafluorosulfanyl)phenyl)piperidin-1-yl)pyridazin-3-yl)-1,3,4-oxadiazol-2-yl)methanol], the inhibition at 1 µM was 99%. Under `N#CC1(c2ccc(S(F)(F)(F)(F)F)cc2)CCN(c2ccc(-c3nc(CO)ns3)nn2)CC1` [Example 108, 1-(6-(3-(Hydroxymethyl)-1,2,4-thiadiazol-5-yl)pyridazin-3-yl)-4-(4-(pentafluorosulfanyl)phenyl)piperidine-4-carbonitrile] stands 100%; under `N#CC1(c2ccc(S(F)(F)(F)(F)F)cc2)CCN(c2ccc(-c3nnc(CO)s3)nn2)CC1` [Example 109, 1-(6-(5-(Hydroxymethyl)-1,3,4-thiadiazol-2-yl)pyridazin-3-yl)-4-(4-(pentafluorosulfanyl)phenyl)piperidine-4-carbonitrile], 96%; under `COC1(c2ccc(S(F)(F)(F)(F)F)cc2)CCN(c2ccc(-c3nc(CO)ns3)nn2)CC1` [Example 110, (5-(6-(4-Methoxy-4-(4-(pentafluorosulfanyl)phenyl)piperidin-1-yl)pyridazin-3-yl)-1,2,4-thiadiazol-3-yl)methanol], 98%. Under `COC1(c2ccc(S(F)(F)(F)(F)F)cc2)CCN(c2ccc(-c3nnc(CO)s3)nn2)CC1` [Example 111, (5-(6-(4-Methoxy-4-(4-(pentafluorosulfanyl)phenyl)piperidin-1-yl)pyridazin-3-yl)-1,3,4-thiadiazol-2-yl)methanol] stands 101%. Turning to `OCc1nsc(-c2ccc(N3CCC(c4ccc(C(F)(F)F)cc4)(C(F)(F)F)CC3)nn2)n1` [Example 112, (5-(6-(4-(Trifluoromethyl)-4-(4-(trifluoromethyl)phenyl)piperidin-1-yl)pyridazin-3-yl)-1,2,4-thiadiazol-3-yl)methanol], the inhibition at 1 µM was 97%.

Turning to `OCc1nnc(-c2ccc(N3CCC(c4ccc(C(F)(F)F)cc4)(C(F)(F)F)CC3)nn2)s1` [Example 113, (5-(6-(4-(Trifluoromethyl)-4-(4-(trifluoromethyl)phenyl)piperidin-1-yl)pyridazin-3-yl)-1,3,4-thiadiazol-2-yl)methanol], the inhibition at 1 µM was 99%.
